Assays:
[1] = Solubility measurement of berberine salts in water (Example 3); conditions: room temperature (about 20° C.)
[2] = cited from earlier work

Compound: berberine hemi-sulfate
- solubility in water at room temperature [1]: > 20 mg/mL

Compound: COc1ccc2cc3[n+](cc2c1OC)CCc1cc2c(cc1-3)OCO2 [berberine chloride, berberine chloride dihydrate]
- loss of water ([2]; elevated temperature or low humidity environment): more than 8%
- uptake of water ([2]; in water or a high humidity environment, converts to tetrahydrate form): about 8%
